Assay results taken from patent US10716769B2 (GUANGZHOU JTREAT BIOSCI. LTD., priority 2015, dated 2020).
In brackets after ≈: the same amount, converted by molar mass.

Test system: Vero cells
Test: Half toxic concentration in the anti-herpes screening
Format: cell-based, African green monkey
Experimental: Vero cells (kidney cells of African green monkey) are used as viral hosts to test the inhibition degree of the samples to cytopathic effects of the Vero cell caused by herpes virus type I and type II. 2. Sample treatment: the sample is dissolved in DMSO at an appropriate concentration before use, and diluted with the culture medium 3 times at a total of 8 dilutions for test. 4.

Q: Which “TC50 half toxic concentration” value does the source give for O=C(c1cc(O)c(O)cc1O)c1ccc(O)c(O)c1O here?
A: The value was 86.23 µg/mL (≈ 310 µM).

Q: With O=C(c1ccc(O)c(O)c1O)c1ccc(O)c(O)c1O [2,3,4,2′,3′,4′-hexahydroxybenzophenone] as the compound, how does the “TC50 half toxic concentration” value read?
A: The value was 12.35 µg/mL (≈ 44.4 µM).

Q: O=C(c1ccccc1)c1ccc(O)c(O)c1O [2,3,4-trihydroxybenzophenone] was tested. Which “TC50 half toxic concentration” value did it give?
A: Its value is 53.42 µg/mL (≈ 232 µM).

Q: How did the “TC50 half toxic concentration” value turn out when O=C(c1ccc(O)cc1O)c1ccc(O)cc1O [2,4,2′,4′-tetrahydroxybenzophenone] was run?
A: The value was 111.11 µg/mL (≈ 451 µM).
